Positions count from the first letter of the chain named.
What was measured:
Aurora A (AurA) [1] = test: Steady-state FRET ligand titration with FRET-labeled AurA; format: binding, human; conditions: apo AurA, Alexa 488/Alexa 568
Description: (§1) ADP stocks (Sigma-Aldrich Corporation, St. Louis, Mo.) were dissolved at 100 mM in 1 M HEPES pH 7.5 and stored at −20° C.
(§2) Samples were excited at 490 nm and fluorescence emission was recorded 510 nm to 750 nm.
(§3) Ligand binding data were visualized and analyzed using Microsoft Excel and Origin software. FRET was calculated using the equation E=1−(DA/D), where E is the efficiency of FRET, DA is the fluorescence of the AurA+D+A sample, and D is the fluorescence of the corresponding AurA+D control sample.

Aurora A (AurA) [2] = test: Time-resolved FRET lifetime assay, AurA biosensor labeled at L225C/S284C, 384-well plates; conditions: for DFG-In/DFG-Out state of AurA on inhibitor binding / inter-probe distance: 5 μM inhibitor; for DFG-In/DFG-Out state of AurA on inhibitor binding: samples lacking TPX2; for inter-probe distance: samples lacking TPX2 (phosphorylated and unphosphorylated AurA)
Aurora A (AurA) [3] = target: T1, Aurora A (AurA) (Homo sapiens, UniProt O14965, C290S/C393S/L225C/S284C); test: Steady-state FRET ligand titration with FRET-labeled AurA; format: binding; conditions: ligand added to apo AurA, calculated from published R0
T1 construct: human Aurora A, residues 122-403, containing an N-terminal hexahistidine tag; hexahistidine (N); made in house; host or cells: E. coli BL21-DE3-RIL
T1 sequence (O14965 122-403 L225C/S284C/C290S/C393S): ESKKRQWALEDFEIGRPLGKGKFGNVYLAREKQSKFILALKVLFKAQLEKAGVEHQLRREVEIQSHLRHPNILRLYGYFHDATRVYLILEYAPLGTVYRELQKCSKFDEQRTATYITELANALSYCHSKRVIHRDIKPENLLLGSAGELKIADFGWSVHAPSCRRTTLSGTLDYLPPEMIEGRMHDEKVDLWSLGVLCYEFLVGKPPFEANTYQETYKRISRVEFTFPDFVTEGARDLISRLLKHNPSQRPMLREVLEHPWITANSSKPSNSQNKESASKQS
Description: as §1, §2, §3

Aurora A (AurA) [4] = target: T2, Aurora A (AurA) (Homo sapiens, UniProt O14965, C290S/C393S/L225C/T287C); test: Time-resolved FRET ligand titration with labeled AurA (Example 1); format: binding; conditions: TR-FRET, ligand added to labeled AurA
T2 construct: human Aurora A, residues 122-403, containing an N-terminal hexahistidine tag; hexahistidine (N); made in house; host or cells: E. coli BL21-DE3-RIL
T2 sequence (O14965 122-403 L225C/T287C/C290S/C393S): T1 sequence (O14965 122-403 L225C/S284C/C290S/C393S) with C163S, T166C
Description: Direct waveform recording experiments were performed in a 384 well plate, and measurement was performed using a NovaFluor fluorescence lifetime plate reader (Fluorescence Innovations, Inc., Minneapolis, Minn.). […] Experiments were performed at 50 nM AurA in ADP Quest Assay buffer+1% DMSO.
TCSPC experiments were performed using a spectrometer built by the group of Dr. David D. Thomas. […] Experiments were performed at 100 nM to 200 nM AurA in ADP Quest Assay buffer+1% DMSO.

p53-altered liver cancer = conditions: mice; cited from earlier work
AurA = target: T3, AurA (Homo sapiens, UniProt O14965); conditions: FIG. 11; cited from earlier work
T3 sequence (O14965 1-403): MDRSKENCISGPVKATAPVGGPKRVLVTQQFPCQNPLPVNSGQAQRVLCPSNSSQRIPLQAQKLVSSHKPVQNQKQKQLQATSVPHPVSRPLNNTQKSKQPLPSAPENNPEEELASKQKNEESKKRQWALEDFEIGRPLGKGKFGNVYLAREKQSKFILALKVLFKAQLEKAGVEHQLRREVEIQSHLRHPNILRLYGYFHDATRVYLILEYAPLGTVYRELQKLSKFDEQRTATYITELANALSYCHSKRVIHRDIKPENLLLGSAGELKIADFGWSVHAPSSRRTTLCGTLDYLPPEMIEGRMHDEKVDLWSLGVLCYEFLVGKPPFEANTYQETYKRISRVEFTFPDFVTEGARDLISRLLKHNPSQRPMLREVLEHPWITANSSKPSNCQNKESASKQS

[5] = tested on: interaction between AurA and the oncoprotein MYC; conditions: cited from earlier work
Aurora A (AurA) [6] = target: T4, Aurora A (AurA) (Homo sapiens, UniProt O14965, C290S/C393S/L225C/S284C); test: Time-resolved FRET lifetime assay, AurA biosensor labeled at L225C/S284C, 384-well plates; conditions: 5 μM inhibitor, unphosphorylated AurA bound to TPX2
T4 sequence (O14965 122-403 L225C/S284C/C290S/C393S): T1 sequence (O14965 122-403 L225C/S284C/C290S/C393S)
T4 sequence (Q9ULW0 1-43 partner): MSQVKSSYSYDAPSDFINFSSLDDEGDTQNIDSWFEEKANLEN

DFG-In/DFG-Out state of AurA on inhibitor binding (Aurora A (AurA) [2]) | Compound | change in FRET on addition of ligand (Aurora A (AurA) [1]) | inter-probe distance (Aurora A (AurA) [2]) | also measured
DFG-Out state | Cc1cc(Nc2cc(N3CCN(C)CC3)nc(Sc3ccc(NC(=O)C4CC4)cc3)n2)n[nH]1 [VX-680] | no observable change | ~30 Å | 
DFG-Out state | O=C(O)c1ccc(Nc2ncc3c(n2)-c2ccc(Cl)cc2C(c2c(F)cccc2F)=NC3)cc1 [MLN-8054] |  |  | treatment outcome (p53-altered liver cancer): successful treatment; AurA state in the X-ray structure with bound inhibitor (AurA): DFG-Out state; effect on the AurA-MYC interaction [5]: disrupt
DFG-Out state | CO[C@@H](C(=O)N1Cc2n[nH]c(NC(=O)c3ccc(N4CCN(C)CC4)cc3)c2C1)c1ccccc1 [Danusertib] |  | ~30 Å | AurA state in the X-ray structure with bound inhibitor (AurA): DFG-Out state; inter-probe distance relative to DFG-In compounds (Aurora A (AurA) [6]): slightly shorter distances

Second part, the compound before the results:

Compound | DFG-In/DFG-Out state of AurA on inhibitor binding (Aurora A (AurA) [2]) | change in FRET on addition of ligand (Aurora A (AurA) [1]) | inter-probe distance (Aurora A (AurA) [2]) | also measured
Nc1ncnc2c1ncn2[C@@H]1O[C@H](COP(=O)(O)OP(=O)(O)O)[C@@H](O)[C@H]1O [ADP] |  | reduce FRET |  | increase in population average R (donor-acceptor distance) (Aurora A (AurA) [3]): approximately 3 Å; change in average fluorescence lifetime (Aurora A (AurA) [4]): increase in average fluorescence lifetime
CCc1cccc(CC)c1NC(=O)N1Cc2n[nH]c(NC(=O)c3ccc(N4CCN(C)CC4)cc3)c2C1 [PHA-680632] | DFG-In state |  | long distances | 
O=C(Nc1cccc(Cl)c1)Nc1ncc(CCNc2ncnc3ccsc23)s1 [SNS-314] |  |  | long distances | 
COc1cc(N2CCC(N3CCN(C)CC3)CC2)ccc1Nc1ncc(Cl)c(Nc2ccccc2S(=O)(=O)C(C)C)n1 [TAE-684] | DFG-In state |  | long distances | 
TPX2: AurA-specific activator peptide, synthetic construct of human TPX2 residues 1-43 (MSQVKSSYSYDAPSDFINFSSLDDEGDTQNIDSWFEEKANLEN; UniProt Q9ULW0 1-43, looked up, fragment) |  | reduces FRET |  | width of the distance distribution (full width at half maximum) (Aurora A (AurA) [2]; in the presence of TPX2, no inhibitor): narrow significantly; inter-dye distance (Aurora A (AurA) [2]; in the presence of TPX2, no inhibitor, unphosphorylated and phosphorylated samples (approximately 30 Å without TPX2)): approximately 50 Å

— patent US11099177B2, “Protein kinase allostery sensor and methods of making and using same” (REGENTS OF THE UNIVERSITY OF MINNESOTA, priority 2016, dated 2021)
